The values below come from US20100247533A1, “TREATMENT WITH A HUMANIZED ANTI-EGFR IgG1 ANTIBODY AND IRINOTECAN” (priority 2009, published 2010).

Assay [1] relates to A549 lung adenocarcinoma xenografts. The assay can be described thus: Animal survival study in vivo, A549 lung adenocarcinoma xenograft model. Further details: species or system SCID beige mice. How it is done:
Partially fucosylated GlycArt-mAb was provided as stock solution (c=11.3 mg/ml), in a buffer containing histidine, trehalose and polysorbate 20. The antibody stock solution was appropriately diluted in PBS prior to injection.
The antibody concentration was adjusted by dilution of the reconstituted stock solution prior to injection.
Irinotecan/CPT-11 (Campto®) was purchased as clinical formulation (20 mg/ml) from Pfizer Pharma GmbH, Karlsruhe, Germany. The antibody concentration was adjusted by dilution of the reconstituted stock solution prior to injection.
A549 human Non Small Cell Lung Cancer (NSCLC) cells were obtained from ATCC. The tumor cell line was routinely cultured in RPMI medium (PAA Laboratories, Austria) supplemented with 10% fetal bovine serum (PAA Laboratories, Austria) and 2 mM L-glutamine, at 37° C. in a water-saturated atmosphere at 5% CO2.
Passage 3 of A549 cells was used for in vivo injection. 2×10^6 cells in PBS were injected intravenously (i.v.).
Female SCID beige mice; age 7-8 weeks at arrival (purchased from Charles River, Sulzfeld, Germany) were maintained under specific pathogen-free conditions with daily cycles of 12 h light/12 h darkness according to committed guidelines (GV-Solas; Felasa; TierschG). […]
The primary parameter was survival. The data was statistically analyzed by log rank test.

The subject of a further assay is colorectal cancer. To be noted: combined with 5-fluorouracil and leucovorin; first-line treatment for colorectal cancer; cited from earlier work.

Regarding `CCc1c2c(nc3ccc(OC(=O)N4CCC(N5CCCCC5)CC4)cc13)-c1cc3c(c(=O)n1C2)COC(=O)[C@]3(O)CC` [irinotecan], the “p (log rank test), survival compared to vehicle control” value in assay [1] (antibodies 25 mg/kg i.p. every seven days, irinotecan 20 mg/kg i.p. four times, single agents or combinations) stood at 0.017. Also, in assay [1] (single agents, antibodies 25 mg/kg i.p. every seven days (day 7-98), irinotecan 20 mg/kg i.p. day 7, 10, 14, 17, A549 cells injected i.v.), the “animal survival compared to vehicle control” value is given as “significantly prolonged animal survival”.
Consider `O=C1[O][Pt]2([NH][C@@H]3CCCC[C@H]3[NH]2)[O]C1=O` [oxaliplatin], for which the response rates in the assay with colorectal cancer is 25-40%.
